Activity calls are given as the source filed them. The calls are words filed in the database; no cut-off is given here.
Key:
[1] = test system: EC9706; assay: Effect on Prxs-3 protein expression in human EC9706 cells at 2 to 8 uM after 48 hrs by Western blot analysis; type: functional, cell-based
[2] = test system: Mus musculus; assay: Acute toxicity in C57BL/6 mouse assessed as histopathological changes in heart at 2 g/kg, ig measured for 2 weeks by hematoxylin and eosin staining based microscopic method; type: organism-based; conditions: in vivo, po, 2000 mg/kg, 336 h
[3] = test system: ECa-109 cell line; assay: Upregulation of p27 protein expression in human EC109 cells at 2 uM after 24 to 48 hrs by Western blot analysis relative to control; type: functional
[4] = test system: EC9706; assay: Induction of apoptosis in human EC9706 cells assessed as increase in cleaved caspase-3 protein expression after 48 hrs by Western blot analysis; type: functional, cell-based
[5] = test system: EC9706; assay: Induction of apoptosis in human EC9706 cells assessed as live cells at 8 uM after 48 hrs by Annexin V-FITC/propidium iodide staining based flow cytometry (reference value: 85.5 to 96%); type: functional
[6] = test system: ECa-109 cell line; assay: Induction of apoptosis in human EC109 cells assessed as late apoptotic cells at 4 uM after 48 hrs in presence of caspase inhibitor Z-VAD-FMK by Annexin V-FITC/propidium iodide staining based flow cytometry (reference value: 0.01%); type: functional
[7] = test system: EC9706; assay: Induction of apoptosis in human EC9706 cells assessed as early apoptotic cells at 2 uM after 48 hrs by Annexin V-FITC/propidium iodide staining based flow cytometry (reference value: 0.68 to 1.58%); type: functional
[8] = test system: EC9706; assay: Effect on Prxs-2 protein expression in human EC9706 cells at 2 to 8 uM after 48 hrs by Western blot analysis; type: functional, cell-based
[9] = test system: GES1; assay: Antiproliferative activity against human GES-1 cells after 48 hrs by MTT assay; type: cell-based; conditions: GES1, 48 h
[10] = test system: Mus musculus; assay: Acute toxicity in C57BL/6 mouse assessed as change in physical phenotype at 2 g/kg, ig measured for 2 weeks; type: organism-based; conditions: in vivo, po, 2000 mg/kg, 336 h
[11] = test system: Mus musculus; assay: Acute toxicity in C57BL/6 mouse assessed as histopathological changes in kidney at 2 g/kg, ig measured for 2 weeks by hematoxylin and eosin staining based microscopic method; type: organism-based; conditions: in vivo, po, 2000 mg/kg, 336 h
[12] = test system: ECa-109 cell line; assay: Induction of apoptosis in human EC109 cells assessed as necrotic cells at 8 uM after 48 hrs in presence of caspase inhibitor Z-VAD-FMK by Annexin V-FITC/propidium iodide staining based flow cytometry (reference value: 2.37%); type: functional
[13] = test system: ECa-109 cell line; assay: Induction of apoptosis in human EC109 cells assessed as increase in Bax protein expression after 48 hrs by Western blot analysis; type: functional, cell-based
[14] = test system: EC9706; assay: Induction of apoptosis in human EC9706 cells assessed as increase in p53 protein expression after 48 hrs by Western blot analysis; type: functional, cell-based
[15] = test system: ECa-109 cell line; assay: Effect on Prxs-1 protein expression in human EC109 cells at 2 to 8 uM after 48 hrs by Western blot analysis; type: functional, cell-based
[16] = test system: ECa-109 cell line; assay: Upregulation of p27 protein expression in human EC109 cells at 4 uM after 24 to 48 hrs by Western blot analysis relative to control; type: functional
[17] = test system: EC9706; assay: Induction of apoptosis in human EC9706 cells assessed as late apoptotic cells at 8 uM after 48 hrs by Annexin V-FITC/propidium iodide staining based flow cytometry (reference value: 1.29 to 1.99%); type: functional
[18] = test system: EC9706; assay: Upregulation of p27 protein expression in human EC9706 cells at 8 uM after 24 to 48 hrs by Western blot analysis relative to control; type: functional
[19] = test system: ECa-109 cell line; assay: Induction of apoptosis in human EC109 cells after 48 hrs by Annexin V-FITC/propidium iodide staining based flow cytometry; type: functional, cell-based
[20] = test system: EC9706; assay: Induction of ROS generation in human EC9706 cells at 8 uM after 24 hrs by DCFH-DA staining based flow cytometry relative to control; type: functional
[21] = test system: EC9706; assay: Induction of apoptosis in human EC9706 cells assessed as live cells at 4 uM after 48 hrs in presence of caspase inhibitor Z-VAD-FMK by Annexin V-FITC/propidium iodide staining based flow cytometry (reference value: 95.7%); type: functional
[22] = test system: EC9706; assay: Anticlonogenic activity against human EC9706 cells after 7 days by crystal violet staining based assay; type: functional, cell-based
[23] = test system: EC9706; assay: Induction of apoptosis in human EC9706 cells assessed as live cells at 8 uM after 48 hrs in presence of caspase inhibitor Z-VAD-FMK by Annexin V-FITC/propidium iodide staining based flow cytometry (reference value: 95.7%); type: functional
[24] = test system: EC9706; assay: Induction of apoptosis in human EC9706 cells assessed as increase in tBid protein expression at 2 to 8 uM after 48 hrs by Western blot analysis; type: functional, cell-based
[25] = test system: ECa-109 cell line; assay: Induction of apoptosis in human EC109 cells assessed as live cells at 8 uM after 48 hrs by Annexin V-FITC/propidium iodide staining based flow cytometry (reference value: 95.2 to 99%); type: functional
[26] = test system: ECa-109 cell line; assay: Induction of apoptosis in human EC109 cells assessed as live cells at 4 uM after 48 hrs by Annexin V-FITC/propidium iodide staining based flow cytometry (reference value: 95.2 to 99%); type: functional
[27] = test system: EC9706; assay: Induction of apoptosis in human EC9706 cells assessed as increase in cleaved caspase-9 protein expression after 48 hrs by Western blot analysis; type: functional, cell-based
[28] = test system: ECa-109 cell line; assay: Cell cycle arrest in human EC109 cells assessed as accumulation at G0/G1 phase after 24 hrs by propidium iodide staining based flow cytometry; type: functional
[29] = test system: EC9706; assay: Cell cycle arrest in human EC9706 cells assessed as decrease in G2/M phase population at 2 uM after 24 hrs by propidium iodide staining based flow cytometry relative to control; type: functional
[30] = test system: EC9706; assay: Effect on Prxs-4 protein expression in human EC9706 cells at 2 to 8 uM after 48 hrs by Western blot analysis; type: functional, cell-based
[31] = test system: EC9706; assay: Antiproliferative activity against human EC9706 cells after 48 hrs by MTT assay; type: functional, cell-based; conditions: EC9706, 48 h
[32] = test system: EC9706; assay: Cell cycle arrest in human EC9706 cells assessed as decrease in G2/M phase population at 4 uM after 24 hrs by propidium iodide staining based flow cytometry relative to control; type: functional
[33] = test system: ECa-109 cell line; assay: Induction of apoptosis in human EC109 cells assessed as late apoptotic cells at 8 uM after 48 hrs by Annexin V-FITC/propidium iodide staining based flow cytometry (reference value: 0.2 to 1.74%); type: functional
[34] = test system: ECa-109 cell line; assay: Induction of apoptosis in human EC109 cells assessed as early apoptotic cells at 2 uM after 48 hrs by Annexin V-FITC/propidium iodide staining based flow cytometry (reference value: 0.43 to 1.15%); type: functional
[35] = test system: EC9706; assay: Induction of apoptosis in human EC9706 cells assessed as live cells at 2 uM after 48 hrs by Annexin V-FITC/propidium iodide staining based flow cytometry (reference value: 85.5 to 96%); type: functional
[36] = test system: ECa-109 cell line; assay: Antiproliferative activity against human EC109 cells after 24 hrs by MTT assay; type: functional, cell-based; conditions: ECa-109, 24 h
[37] = test system: EC9706; assay: Antiproliferative activity against human EC9706 cells after 24 hrs by MTT assay; type: functional, cell-based; conditions: EC9706, 24 h
[38] = test system: ECa-109 cell line; assay: Induction of apoptosis in human EC109 cells assessed as necrotic cells at 8 uM after 48 hrs by Annexin V-FITC/propidium iodide staining based flow cytometry (reference value: 0.74 to 1.18%); type: functional

## COc1ccc(/C=N/NC(=O)c2cccc(S(=O)(=O)N3CCOCC3)c2)c(O)c1
[1]
  Activity: Active
[2]
  Activity: Non-Toxic
[3]
  fold change (FC): 1.2
[4]
  Activity: Dose-dependent effect
[5]
  Activity: 29.9 - 61.1%
[6]
  Activity: 21.1%
[7]
  Activity: 1.56%
[8]
  Activity: Active
[9]
  IC50: > 80 µM
[10]
  Activity: Non-Toxic
[11]
  Activity: Non-Toxic
[12]
  Activity: 17.6%
[13]
  Activity: Dose-dependent effect
[14]
  Activity: Dose-dependent effect
[15]
  Activity: Active
[16]
  fold change (FC): 1.4
[17]
  Activity: 25 - 33.1%
[18]
  fold change (FC): 1.7
[19]
  Activity: Dose-dependent effect
[20]
  fold change (FC): 1.95
[21]
  Activity: 42.1%
[22]
  Activity: Active
[23]
  Activity: 31%
[24]
  Activity: Active
[25]
  Activity: 25.2 - 26.7%
[26]
  Activity: 27.2 - 63.6%
[27]
  Activity: Dose-dependent effect
[28]
  Activity: Dose-dependent effect
[29]
  fold change (FC): 0.28
[30]
  Activity: Active
[31]
  IC50: 7.51 µM
[32]
  fold change (FC): 0.3
[33]
  Activity: 42.4 - 43%
[34]
  Activity: 13.3%
[35]
  Activity: 82.8%
[36]
  IC50: > 20 µM
[37]
  IC50: > 20 µM
[38]
  Activity: 2.23 - 13%
